Measurements: article PMC9021288 (Nature Communications, 2022)
Several values for one entry are separate records, joined by “and”; a condition that tells them apart may be missing. Equal values may be shown once. Read-outs that look alike come from different tables or passages of the source.

Assays:
HepG2 cells = experiment: HepG2 viability (resazurin); details: for HepG2 viability assay, normalised to controls / HepG2 viability assay, raw signal: replicate 1, replicate 2
Experimental: (§1) Safety studies were performed by commercial services using their standard protocols. […] Genotoxicity was investigated using the Ames test (Bacterial Reverse Mutation Assay) (Covance Laboratories Ltd, North Yorkshire, England). In vitro mammalian cell micronucleus screening assay was studied in human peripheral blood lymphocytes (BioReliance Corporation, Rockville, USA). Cardiotoxicity was determined against the hERG channel in an automated patch clamp assay using the Qpatch or against the hNaV 1.5, hKV 1.5 and hCaV 1.2 using a manual patch-clamp technique (Metrion Biosciences, Cambridge, UK). Cytotoxicity in human and rat primary hepatocytes was assessed using the CellTiter-Blue assay performed by commercial services (KaLy-Cell). The viability of HepG2 cells was monitored through the addition of 1 mM resazurin. Following 6 h incubation, the relative amount of reduced resazurin was detected in a fluorimeter and compared to the assay controls (vehicle: 0.1% DMSO and positive control: 10 µM puromycin).

Caco-2 = Caco-2 permeability assay; details: pH 7.4/7.4
rat primary hepatocytes = experiment: Primary hepatocyte viability (CellTiter-Blue), rat; type: cell-based; details: for %Viability: Rat primary hepatocytes
Experimental: as §1

[1] = tested on: P. falciparum NF54-HGL, dT648M, cT648M, cT627A asexual blood stages; experiment: Asexual drug-sensitivity of AcAS mutant parasites; type: cell-based, Plasmodium falciparum; parameters: key to asexual blood stages growth, dose-response: % growth; DMSO control = 100%, DHA/epoxomicin = no growth
Experimental: Replication assays were performed using a SYBR Green method as described previously. Briefly, asynchronous parasites were diluted to 0.83% parasitemia, 3% hematocrit in 30 µl medium, and added to 30 µl of diluted compounds in medium (0.1% DMSO final concentration) in black 384-wells plates. After a 72-h incubation, 30 µl of SYBR Green diluted in lysis buffer was added according to the manufacturer’s protocol (Life Technologies). Fluorescence intensity was measured on a BioTek Synergy 2 Plate Reader after 1-h incubation and was normalized to a DMSO control (100% growth) and DHA- or epoxomicin-treatment (no growth). […] Parasite survival was assessed by flow cytometry on an Accuri C6 (BD Biosciences) with BD C6 Plus software using SYBR Green and MitoTracker Deep Red FM (Life Technologies) as nuclear stain and vital dye, respectively, and data were analyzed using FlowJo (10.5.0). […] Luminescence was measured after 72 h using the Renilla-Glo(R) Luciferase Assay System (Promega E2750) and the GlomAX® Discover Multimode Microplate Reader (Promega). The luminescence values were normalized to DMSO vehicle (100% growth) and 200 nM chloroquine-treated (no growth) samples as controls.
The mutation found in selected drug-resistant parasites was verified by introducing the point mutations in AcAS (T648M and T627A) in NF54-HGL parasites using a CRISPR-Cas9 system as described previously. The oligonucleotides for the guide RNA and the donor template were cloned into a pDC2-based plasmid containing a Cas9 and guide cassette, using the BbsI and EcoRI/AatII restriction sites, respectively. Donor DNA was amplified by (overlap-extension) PCR amplification from genomic P. falciparum DNA and oligonucleotides for the guide RNAs were ordered (Sigma-Aldrich). The correct sequence and integration of both inserts were confirmed by Sanger Sequencing.

[2] = Population PK model in NSG mice; type: in vivo, female NSG mice; details: population PK model estimate
Experimental: The experimental designs are summarized in Supplementary Table 30. […] Samples were processed under liquid-liquid extraction methods and analyzed by LC-MS/MS for quantitation in a Waters UPLC-TQD (Micromass, Manchester, UK).
Data preparation, exploration and model pre- and postprocessing were performed using R (version 3.6.3) and R package IQRtools (version 1.2.1 IntiQuan GmbH). Non-linear mixed-effects (NLME) modeling was used to estimate the PK and PD parameters using Monolix (Lixoft version MLX2018R2). The population PKPD model was developed with a two-stage approach: first, a population PK model was determined; then, the individual PK parameters were used as regression parameters and the PD parameters were estimated. The PD model consists of the balance between a parasite net growth rate and a drug killing rate. […] The growth rate of log-transformed parasite concentration was fixed at 0.03 /h based on prior experiments but estimating growth rate interindividual variability. Different Hill coefficients were tested.

[3] = tested on: P. falciparum field isolates from Uganda; experiment: Ex vivo growth inhibition assay, Uganda field isolates; type: cell-based, Plasmodium falciparum; details: N = 230 isolates
Experimental: An ex vivo growth inhibition assay was performed on fresh clinical P. falciparum isolates in Uganda. […] Parasite density was quantified by fluorescence after incubation with SYBR Green lysis buffer measured on a BMG Fluostar Optima plate reader, as previously described.

C[C@@H](CNC(=O)[C@H](O)C(C)(C)CO)NC(=O)c1cc(F)c(F)cc1F [MMV693183]
HepG2 viability assay, normalised to controls (HepG2 cells; log concentration (M) -5): 96% and 104%
HepG2 viability assay, raw signal (HepG2 cells; log concentration (M) -5): 10734 and 11536
HepG2 viability assay, normalised to controls (HepG2 cells; log concentration (M) -5.5): 103% and 105%
HepG2 viability assay, raw signal (HepG2 cells; log concentration (M) -5.5): 11483 and 11722
HepG2 viability assay, normalised to controls (HepG2 cells; log concentration (M) -6): 105% and 100%
HepG2 viability assay, raw signal (HepG2 cells; log concentration (M) -6): 11668 and 11173
HepG2 viability assay, normalised to controls (HepG2 cells; log concentration (M) -6.5): 103% and 102%
HepG2 viability assay, raw signal (HepG2 cells; log concentration (M) -6.5): 11442 and 11328
HepG2 viability assay, normalised to controls (HepG2 cells; log concentration (M) -7): 100% and 101%
HepG2 viability assay, raw signal (HepG2 cells; log concentration (M) -7): 11114 and 11207
HepG2 viability assay, normalised to controls (HepG2 cells; log concentration (M) -7.5): 104% and 107%
HepG2 viability assay, raw signal (HepG2 cells; log concentration (M) -7.5): 11575 and 11909
HepG2 viability assay, normalised to controls (HepG2 cells; log concentration (M) -8): 105% and 102%
HepG2 viability assay, raw signal (HepG2 cells; log concentration (M) -8): 11700 and 11315
HepG2 viability assay, normalised to controls (HepG2 cells; log concentration (M) -8.5): 105% and 101%
HepG2 viability assay, raw signal (HepG2 cells; log concentration (M) -8.5): 11684 and 11300
HepG2 viability assay, normalised to controls (HepG2 cells; log concentration (M) -9): 109%
HepG2 viability assay, raw signal (HepG2 cells; log concentration (M) -9): 12138 and 12106
IC50 (HepG2 cells; read-out: IC50 viability, HepG2): > 10000 nM
Average Papp A to B (Caco-2): 2.9e-06 s⁻¹
Average Papp B to A (Caco-2): 1.35e-05 s⁻¹
Efflux ratio (Caco-2): 4.7
%Viability (rat primary hepatocytes; Batch R14I19, 0.1 µM): 103%
%Viability (rat primary hepatocytes; Batch R14I19, 0.5 µM): 105%
%Viability (rat primary hepatocytes; Batch R14I19, 1 µM): 101%
%Viability (rat primary hepatocytes; Batch R14I19, 5 µM): 101%
%Viability (rat primary hepatocytes; Batch R14I19, 10 µM): 101%
%Viability (rat primary hepatocytes; Batch R17G25, 0.1 µM): 111%
%Viability (rat primary hepatocytes; Batch R17G25, 0.5 µM): 109%
%Viability (rat primary hepatocytes; Batch R17G25, 1 µM): 111%
%Viability (rat primary hepatocytes; Batch R17G25, 5 µM): 106%
%Viability (rat primary hepatocytes; Batch R17G25, 10 µM): 106%
IC50 (rat primary hepatocytes; primary rat hepatocytes): > 10000 nM
sensitivity of T627A AcAS mutant [1]: also resistant to MMV693183
IC50 shift asexual ([1]; CRISPR cT648M): 49 ×
IC50 shift ([1]; NF54 selected at 7 nM): 77 x
IC50 shift ([1]; selected resistant parasites vs parent, asexual growth assay): 13-77 ×
CL, apparent clearance [2]: 1.25 L/h
Tk0, absorption time [2]: 0.364 h
Vc, apparent central volume [2]: 2.25 L
Vp1, apparent peripheral volume [2]: 799 L
Vp2, apparent second peripheral volume [2]: 1.81 L
IC50 ([3]; read-out: IC50 maximum): 11 nM
IC50 ([3]; read-out: IC50 minimum): 0.3 nM

CC(CNC(=O)C(O)C(C)(C)CO)NC(=O)CCc1ccccc1F (stereo in doubt) [MMV689258]
asexual blood stages growth, dose-response ([1]; NF54-HGL, Log concentration (M) -9): 76.1 and 93.6 and 100.55
asexual blood stages growth, dose-response ([1]; NF54-HGL, Log concentration (M) -9.5): 86.25 and 83.5 and 106.05
asexual blood stages growth, dose-response ([1]; NF54-HGL, Log concentration (M) -10): 96.25 and 97.9 and 112.35
asexual blood stages growth, dose-response ([1]; cT627A, Log concentration (M) -7.5): 91.7 and 68.35 and 87.5
asexual blood stages growth, dose-response ([1]; cT627A, Log concentration (M) -8): 98.75 and 75.4 and 102
asexual blood stages growth, dose-response ([1]; cT627A, Log concentration (M) -8.5): 98.95 and 109.7 and 103.8
asexual blood stages growth, dose-response ([1]; cT627A, Log concentration (M) -9): 93.85 and 110.4 and 101.9
asexual blood stages growth, dose-response ([1]; cT627A, Log concentration (M) -9.5): 95.15 and 100.65 and 102.3
asexual blood stages growth, dose-response ([1]; cT627A, Log concentration (M) -10): 92.1 and 102.75
asexual blood stages growth, dose-response ([1]; cT648M, Log concentration (M) -6): 85.3 and 76.95 and 95.6
asexual blood stages growth, dose-response ([1]; cT648M, Log concentration (M) -6.5): 97.25 and 93 and 109.55
asexual blood stages growth, dose-response ([1]; cT648M, Log concentration (M) -7): 112 and 98.45 and 99.1
asexual blood stages growth, dose-response ([1]; cT648M, Log concentration (M) -7.5): 108.7 and 101 and 101.4
asexual blood stages growth, dose-response ([1]; cT648M, Log concentration (M) -8): 108.05 and 99.35 and 97.85
asexual blood stages growth, dose-response ([1]; cT648M, Log concentration (M) -8.5): 99.1 and 110.25 and 104.05
asexual blood stages growth, dose-response ([1]; cT648M, Log concentration (M) -9): 88.2 and 96.6 and 106.85
asexual blood stages growth, dose-response ([1]; cT648M, Log concentration (M) -9.5): 95.65 and 97.35 and 100.3
asexual blood stages growth, dose-response ([1]; cT648M, Log concentration (M) -10): 86.35 and 97.9 and 99.6
asexual blood stages growth, dose-response ([1]; dT648M, Log concentration (M) -6): 86.55
asexual blood stages growth, dose-response ([1]; dT648M, Log concentration (M) -6.5): 89.25
asexual blood stages growth, dose-response ([1]; dT648M, Log concentration (M) -7): 95.15
asexual blood stages growth, dose-response ([1]; dT648M, Log concentration (M) -7.5): 99.65
asexual blood stages growth, dose-response ([1]; dT648M, Log concentration (M) -8): 89.85
asexual blood stages growth, dose-response ([1]; dT648M, Log concentration (M) -8.5): 92.65
asexual blood stages growth, dose-response ([1]; dT648M, Log concentration (M) -9): 97.45
asexual blood stages growth, dose-response ([1]; dT648M, Log concentration (M) -9.5): 97
asexual blood stages growth, dose-response ([1]; dT648M, Log concentration (M) -10): 99.15
